Experimental data: PMC12598832, “Synthesis and Anticancer Potential of New Benzimidazole Theranostic” (ChemistryOpen, 2025)
“And” between values parts separate entries of the source, which are not always exact repeats. Equal entries are not always repeated. Structures can show the parent of a compound that is named as a salt. Where two headings read alike, the source gives them in different places.

How the values were obtained:
SIRT2 human recombinant = target: T1, SIRT2 human recombinant (Homo sapiens, UniProt Q8IXJ6); experiment: SIRT2 Direct Fluorescent Screening Assay Kit (Cayman); type: biochemical; conditions: for IC50: five concentrations 1-50 μM
T1 construct: purchased Cayman Chemicals, Ann Arbor 700,280
T1 sequence (Q8IXJ6 1-389): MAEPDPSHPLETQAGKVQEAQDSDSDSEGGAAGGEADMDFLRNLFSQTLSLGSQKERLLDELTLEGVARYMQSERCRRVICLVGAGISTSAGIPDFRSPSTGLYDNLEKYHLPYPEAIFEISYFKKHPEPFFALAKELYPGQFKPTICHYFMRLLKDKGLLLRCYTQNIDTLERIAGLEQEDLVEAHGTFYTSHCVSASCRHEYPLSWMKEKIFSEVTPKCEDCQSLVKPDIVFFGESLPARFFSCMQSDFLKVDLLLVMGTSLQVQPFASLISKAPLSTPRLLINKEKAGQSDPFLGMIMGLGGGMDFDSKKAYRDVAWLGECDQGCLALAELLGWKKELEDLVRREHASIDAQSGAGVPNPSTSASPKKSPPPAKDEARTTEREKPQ
Description: The SIRT2 inhibitory activity of the compounds was evaluated using the SIRT2 Direct Fluorescent Screening Assay Kit (Cayman Chemicals, Ann Arbor, C/N: 700,280) according to the manufacturer's instructions. The SIRT2 peptide substrate comprised amino acids 317–320 of human p53 conjugated to […] (Gln‐Pro‐Lys‐Lys(ε‐acetyl)‐AMC). […] Subsequently, 50 μl of developer solution (6 μg μl^−1 SIRT2 developer, 2 mM nicotinamide) was added. The mixture was incubated for a further 30 min at room temperature. […] The fluorescence was measured with excitation and emission wavelengths of 355 and 460 nm, respectively, using the Tecan Infinite 200 Pro. The percentage inhibition was determined as the ratio of […] under each experimental condition to that of the control.

H314 cell line = test system: H314 cell line; set-up: method as in ref 28 Khoo et al.; conditions: 24 h treatment; ref 28 Khoo et al.; cited from earlier work
HEK293 cells = experiment: MTT cell proliferation assay, HEK293 (noncancerous); type: cell-based, human; conditions: read-out: HEK293 IC50 [μM] ± SEM
Source text: (§1) The H103 and H314 OSCC cell lines were obtained from the European Collection of Cell Cultures (ECACC). The HCT116 and HEK293 cell lines were obtained from the American Type Culture Collection (Rockville, MD).
(§2) All cell lines were maintained in high‐glucose Dulbecco's Modified Eagle Media (DMEM) (Sigma‐Aldrich, Buchs, Switzerland). The culture media was supplemented with 10% fetal bovine serum (FBS) (TICO, Amsterdam, Netherlands) and 1% penicillin‐streptomycin. Prior to the cell‐based assay, cell lines were incubated at 37 °C in a 5% CO2 humidified atmosphere
(§3) Cells were seeded in 96‐well plates at a density of 5 × 10^3 per well. After 24 h of seeding, the cells were treated with 50 μM of the compounds of interest (final concentration 0.25% DMSO) and allowed to adhere for 72 h at 37 °C in a 5% CO2 humidified atmosphere. The 3‐(4,5‐dimethylthiazol‐2‐yl)‐2,5‐diphenyltetrazolium bromide (MTT) assay was conducted to examine the cell cytotoxicity profiles of the synthesized compounds. Briefly, the treatment media was discarded, and 0.5 mg mL^−1 of MTT was added to each well. The plates were incubated for another 4 h at 37 °C in a 5% CO2 humidified atmosphere. Following the incubation, the medium‐MTT solution was removed, and 100 μL of DMSO was added to dissolve the formazan crystals. The absorbance was measured at 570 nm, with the reference wavelength at 620 nm, using the Tecan Infinite 200 Pro. The experiment was carried out in triplicate.

H103 cell line = test system: H103 cell line; set-up: method as in ref 28 Khoo et al.; conditions: 24 h treatment; ref 28 Khoo et al.; cited from earlier work
H314 (OSCC) cell line = experiment: MTT cell proliferation assay, H314; type: cell-based; conditions: for IC50: MTT, read-out: H314 IC50 [μM] ± SEM; for IC50 / cytotoxic effect in preliminary screening, H314: 72 h; for H314 Selectivity Index (SI): versus HEK293; for cytotoxic effect in preliminary screening, H314: 50 μM, versus control 0.25% DMSO, ANOVA/Tukey
Source text: as §1, §2
as §3, with “After 24 h of seeding, the cells were treated with 50 μM of the compounds of interest (final concentration 0.25% DMSO) and allowed to adhere for 72 h at 37 °C in a 5% CO2 humidified atmosphere.” left out

[1] = test system: HCT116 (colorectal carcinoma) cell line; experiment: MTT cell proliferation assay, HCT116; type: cell-based; conditions: for IC50: MTT, 72 h, read-out: HCT116 IC50 [μM] ± SEM; for HCT116 Selectivity Index (SI): versus HEK293
[2] = test system: H103 (oral squamous cell carcinoma, OSCC) cell line; experiment: MTT cell proliferation assay, H103; type: cell-based; conditions: for IC50: MTT, 72 h, read-out: H103 IC50 [μM] ± SEM; for H103 Selectivity Index (SI): versus HEK293
Source text: as §1, §2, §3

[3] = set-up: method as in ref 26 = [26]; 26 W. H. Melhuish , J. Phys. Chem. 1961 , 65 , 229 .; conditions: in 0.5 M H2SO4; cited from earlier work
[4] = Fluorescence properties (molar extinction coefficient, quantum yield, Stokes shift); type: physicochemical
Description: A series of dilutions of V7 (dissolved in DMSO) was prepared. The absorbance of the solutions at 326 nm was recorded on the UviLine 9400 spectrophotometer using a quartz cuvette (10 × 10 mm). A calibration curve of absorbance against concentration was generated. The molar extinction coefficient was calculated from the gradient of the line of best fit, in accordance with Beer–Lambert's law.
A series of dilutions of V7 (dissolved in DMSO) was prepared. The fluorescence emission peak at each concentration was determined using the Tecan Infinite 200 Pro microplate reader (λex = 326 nm and λem = 492 nm). The […] peak was plotted against the fluorescence emission peak and compared to that of a quinine sulfate standard, which has a known quantum yield.
The quantum yield of V7 was subsequently calculated using the following equation Φ=ΦR(Grad/GradR)(n^2/nr2)
The quinine sulfate reference has a quantum yield of 54.6% when dissolved in 0.5 M H2SO4.^[ [26] ^] The refractive index of 0.5 M H2SO4 is 1.346, while the refractive index of DMSO is 1.479.^[ [27] ^]

[5] = test system: H103 (oral squamous cell carcinoma, OSCC) cell line; set-up: method as in PMID 32904142; conditions: previous study; cited from earlier work
[6] = compound 50 μM, preliminary screening, read-out: Percentage SIRT2 inhibition (%)
[7] = compound 50 μM, preliminary screening
[8] = dose-response, 50 μM, read-out: % Inhibition of SIRT2

Row | Compound | inhibition at 50 µM (SIRT2 human recombinant; [6]) | Percentage SIRT2 inhibition (%) (SIRT2 human recombinant; [7]) | IC50 (H314 (OSCC) cell line) | H314 Selectivity Index (SI) (H314 (OSCC) cell line) | HCT116 Selectivity Index (SI) [1] | H103 Selectivity Index (SI) [2] | IC50 (HEK293 cells; Homo sapiens, HEK293, 72 h) | IC50 ([1]; Homo sapiens, HCT-116) | further results
1 | CCOC(=O)c1ccc2[nH]c(-c3ccc(O)c(OC)c3)nc2c1 [Compound V3] | 61.9 ± 12% | – | – | – | – | – | – | – | –
2 | CCOC(=O)c1ccc2[nH]c(-c3ccc(OC)c(O)c3)nc2c1 [Compound V4] | – | no SIRT2 inhibition | – | – | – | – | – | – | –
3 | N.N.[Cl][Pt][Cl] [Cisplatin, reference compound] | – | – | 15.1 ± 1.05 µM | 0.23 | 0.43 | 1.91 | – | – | IC50 (H314 cell line): 200 µM; IC50 (HEK293 cells; 72 h): 3.54 ± 0.18 µM; IC50 (H103 cell line): 15 µM; IC50 [1]: 8.24 ± 0.86 µM; IC50 [2]: 1.85 ± 0.42 µM; sensitivity in H103 relative to H314 ([2]; from IC50 values of Table 2): 8 fold
4 | C=C[C@H]1C[N@@]2CC[C@H]1C[C@H]2[C@H](O)c1ccnc2ccc(OC)cc12 [quinine sulfate] | – | – | – | – | – | – | – | – | quantum yield of reference [3]: 54.6%
5 | CCOC(=O)c1ccc2[nH]c(-c3cccc(O)c3)nc2c1 [Compound V1] | 25.4 ± 11.8% | – | – | – | – | – | – | – | –
6 | CCOC(=O)c1ccc2[nH]c(-c3cccc(OC)c3)nc2c1 [Compound V5] | – | no SIRT2 inhibition | 31.7 ± 1.27 µM | 1.44 | 4.08 | 2.00 | 45.6 ± 2.18 µM | 11.2 ± 3.14 µM | cytotoxic effect in preliminary screening, H314 (H314 (OSCC) cell line): highly significant effects; IC50 ([2]; Homo sapiens, H103): 22.8 ± 3.84 µM
7 | CCOC(=O)c1ccc2[nH]c(-c3ccc(OC)c(OC)c3)nc2c1 [Compound V8] | 25.5 ± 12.9% | – | – | – | – | – | – | – | –
8 | CCOC(=O)c1ccc2[nH]c(-c3ccccc3O)nc2c1 [Compound V7] | > 95% | complete inhibition of enzymatic activity | 16.7 ± 1.13 µM | 2.66 | 3.34 | 3.81 | 44.4 ± 3.03 µM | 13.3 ± 2.52 µM | molar extinction coefficient (molar absorptivity ε) ([4]; in DMSO, absorbance at 326 nm): 34,477 M^−1 cm^−1 and 34 477 M^−1 cm^−1; quantum yield Φ ([4]; in DMSO, λex 326 nm, λem 492 nm, versus quinine sulfate): 26%; Stokes shift Δλ ([4]; λex 326 nm, λem 492 nm): 166 nm; inhibition at 1 µM (SIRT2 human recombinant; dose-response): 0.2 ± 5.8%; inhibition at 3 µM (SIRT2 human recombinant; dose-response): 32.8 ± 2.8%; inhibition at 10 µM (SIRT2 human recombinant; dose-response): 66.1 ± 7.1%; inhibition at 25 µM (SIRT2 human recombinant; dose-response): 81.3 ± 3.2%; inhibition at 50 µM (SIRT2 human recombinant; [8]): 100 ± 3%; IC50 (SIRT2 human recombinant): 6.4 µM; cytotoxic effect in preliminary screening, H314 (H314 (OSCC) cell line): highly significant effects; IC50 ([2]; Homo sapiens, H103): 11.6 ± 1.04 µM
9 | CCOC(=O)c1ccc2[nH]c(-c3ccccc3OC)nc2c1 [Compound V6] | 11.8 ± 11.4% | weakest inhibitory effect | – | – | – | – | – | – | –
10 | CCOC(=O)c1ccc2[nH]c(-c3ccc(O)c(O)c3)nc2c1 [Compound V9] | 39.3 ± 7.3% | – | 37.8 ± 1.81 µM | 1.37 | 3.13 | – | 51.8 ± 5.65 µM | 16.6 ± 3.52 µM | cytotoxic effect in preliminary screening, H314 (H314 (OSCC) cell line): highly significant effects; IC50 ([2]; Homo sapiens, H103): > 50 µM
11 | CCOC(=O)c1ccc2[nH]c(-c3ccc4c(c3)OCO4)nc2c1 [BZD9Q1, reference compound] | – | – | > 100 µM | – | 1.60 | 3.15 | 18.4 ± 2.95 µM | 11.5 ± 2.3 µM | IC50 [5]: 5.83 µM
12 | CCOC(=O)c1ccc2[nH]c(-c3ccc(O)cc3O)nc2c1 [Compound V2] | > 95% | complete inhibition of enzymatic activity | – | – | – | – | – | – | inhibition at 1 µM (SIRT2 human recombinant; dose-response): 19.4 ± 2.4%; inhibition at 3 µM (SIRT2 human recombinant; dose-response): 29.5 ± 6.6%; inhibition at 10 µM (SIRT2 human recombinant; dose-response): 44.5 ± 0.2%; inhibition at 25 µM (SIRT2 human recombinant; dose-response): 59.8 ± 0.1%; inhibition at 50 µM (SIRT2 human recombinant; [8]): 77 ± 0.1%; IC50 (SIRT2 human recombinant): 10.8 µM
